Measured values as given in ChEMBL document CHEMBL1153246, “Discovery of novel taspine derivatives as antiangiogenic agents” (Bioorg Med Chem Lett, 2010).
Converted amounts (≈) assume the structure as drawn.

Legend:
[1] = test system: ECV-304; experiment: Antiproliferative activity against human ECV304 cells; assay type: functional, cell-based
[2] = Solubility of the compound
[3] = test system: A549; experiment: Antiproliferative activity against human A549 cells; assay type: functional, cell-based
[4] = test system: Caco-2; experiment: Antiproliferative activity against human Caco-2 cells; assay type: functional, cell-based
[5] = Dissociation constant, pKa; conditions: pH 7.4
[6] = Polar surface area; conditions: pH 7.4
[7] = Ratio of solubility for drug to taspine; assay type: physicochemical
[8] = test system: Caco-2; experiment: Ratio of IC50 drug to IC50 taspine against human Caco-2 cells; assay type: functional
[9] = test system: ECV-304; experiment: Ratio of IC50 drug to IC50 taspine against human ECV304 cells; assay type: functional

SMILES | IC50 [1] | solubility [2] | IC50 [3] | IC50 [4] | pKa [5] | PSA [6] | Ratio [7] | Ratio IC50 [8] | Ratio IC50 [9]
COc1ccc2c(=O)oc3c(OC)cc(CCN(C)C)c4c(=O)oc1c2c34 [TASPINE] | 22.3 nM | 21 µg/mL (≈ 56.9 µM) | 4.18 nM | 153 nM | 8.21 | 74.3 Å2 |  |  | 
COC(=O)c1ccc(OC)c(OC(=O)c2cc(O)c(OC)cc2CCN(C)C)c1 |  | 130 µg/mL (≈ 322 µM) | 111 nM | 3100 nM | 8.57 | 94.5 Å2 |  |  | 
COC(=O)c1cc(OC(=O)c2ccc(OC)c(O)c2)c(OC)cc1CCN(C)C |  | 140 µg/mL (≈ 347 µM) | 453 nM | 11000 nM | 8.75 | 94.5 Å2 | 13 |  | 
COC(=O)c1cc(OC(=O)c2ccc(OC)c(O)c2)c(OC)cc1CCN1CCOCC1 | 2.67 nM | 270 µg/mL (≈ 606 µM) | 158 nM | 52.5 nM | 7.28 | 104 Å2 | 13 | 3 | 10
COC(=O)c1cc(OC(=O)c2ccc(OC)c(O)c2)c(OC)cc1CCNc1ccc(F)c(Cl)c1 | 61 nM | 61 µg/mL (≈ 121 µM) | 180 nM |  | 3.65 | 103 Å2 |  |  | 
